Patent US5413915A (priority 1991, dated 1995)
Marks after values point to notes of the source that are not given here.

Experiments:
[1] = system: rat liver microsomes; format: biochemical; design: key: Positive: the development of coloration denoted a positive response; Negative: the absence of such coloration denoted a negative response
[2] = in vivo; cited from earlier work
[3] = system: Salmonella typhimurium; settings: cited from earlier work
[4] = in vivo; cited from earlier work; remark: listed apart in the source
[5] = system: rat liver microsomes; format: biochemical; design: unit not given here
[6] = system: rat liver microsomes; experiment: Color development in detection elements with different leuco dyes (Table 2); format: biochemical; settings: applied dose 10 μmol (formaldehyde 1 μmol); for New Color Development, NBTZ: unexposed control also Black
Procedure: Solutions containing 0.5 mM of the respective dyes in 0.1 M TRIS buffer, pH=7.4 (except for nitro blue tetrazolium, 5.0 mM in 50% ethanolic TRIS, pH=7.4) were bleached with a few crystals of sodium sulfite or sodium dithionite, then plied in 0.02 mL aliquots as test spots on a clear sheet of transparency film. Spontaneous color development in air was noted (Table 2). Subsequently, a suspension of rat liver microsomes containing 1 mM NADPH and 1 mg/mL gelatin in 0.1 M TRIS-MOPS buffer (pH=7.7) was plied in 0.05 mL aliquots over the dried leuco-dye test spots. After drying, color development condition was noted, and the test spots saved for exposure tests to chemical substances (Table 2). Exposures were carried out by layering 0.01 mL of 0.1-1.0 M solutions of test chemical substances onto the test spots, and changes in color noted over time.

[7] = Direct reaction of chemicals with the indicator leuco dye; settings: without metabolic activation
[8] = cited from earlier work; for E1/2: literature (Kemula and Axt); for Em7: midpoint redox potential

Compound | Tumorigen Activity [2] | Mutagenicity [3] | Teratogen Activity [4] | Detector Response, threshold dose [5] | also measured
CC(=O)O [Acetate] | - | - | - |  | Invention Response [1]: Negative; Carcinogenic Status [2]: Negative
Nc1ccccc1 [Aniline] | +^e | + | - | 5 | Invention Response [1]: Positive; Carcinogenic Status [2]: Possible
CC(Cl)(Cl)Cl [CH3 CCl3] |  |  |  |  | New Color Development, Methyl Green leuco dye [6]: None; New Color Development, Methyl Violet leuco dye [6]: None^a,b; New Color Development, Naphthol Blue-Black leuco dye [6]: None; New Color Development, Nile Blue A leuco dye [6]: None; New Color Development, Safranin O leuco dye [6]: None; New Color Development, NBTZ [6]: Black
ClC1=C(Cl)C2(Cl)C3C(Cl)C(Cl)CC3C1(Cl)C2(Cl)Cl (stereo not shown) [Chlordane] |  |  |  |  | Invention Response [1]: Positive; Carcinogenic Status [2]: Positive
O=c1ccc2ccccc2o1 [Coumarin] |  |  |  |  | Invention Response [1]: Positive; Carcinogenic Status [2]: Positive
CN(C)C(=O)Nc1ccc(Cl)c(Cl)c1 [DCMU, 3(3,4-Dichlorophenyl)-1,1,dimethylurea] | +^e |  | + |  | Invention Response [1]: Positive; Carcinogenic Status [2]: Teratogen only
CC(C)[C@@H](C)/C=C/[C@@H](C)[C@H]1CC[C@H]2C3=CC=C4C[C@@H](O)CC[C@]4(C)[C@H]3CC[C@]12C [Ergosterol] | - | - | + | 0.1 | New Color Development, Methyl Green leuco dye [6]: Green; New Color Development, Methyl Violet leuco dye [6]: Violet; New Color Development, Naphthol Blue-Black leuco dye [6]: None; New Color Development, Nile Blue A leuco dye [6]: Blue; New Color Development, Safranin O leuco dye [6]: Pink; New Color Development, NBTZ [6]: Black
O=C(O)CNCP(=O)(O)O [Glyphosate (ind.), Glyphosate] | - | - | - | 0.3 | 
OO [H2 O2] |  | + | - | 1-2 | Tumorigen Activity, assignment based on IARC reports [2]: +; Direct reaction with the indicator leuco dye [7]: react directly with the indicator dye
C[C@]12CCC(=O)C=C1CC[C@@H]1[C@@H]2[C@@H](O)C[C@@]2(C)[C@H]1CC[C@]2(O)C(=O)CO [Hydrocortisone] | - | - | + | 0.1 | 
O=C(O)CI [ICH2 COOH, iodoacetic acid] |  |  |  |  | New Color Development, Methyl Green leuco dye [6]: Green; New Color Development, Methyl Violet leuco dye [6]: Purple; New Color Development, Naphthol Blue-Black leuco dye [6]: None; New Color Development, Safranin O leuco dye [6]: None; New Color Development, NBTZ [6]: Black; Direct reaction with the indicator leuco dye [7]: react with the leuco dye to give colored products; Direct reaction with the indicator leuco dye ([7]; listed as iodoacetate): react directly with the indicator dye
[La+3] [Lanthanum(III)] | - | - | - | 5 | 
Cl[C@H]1[C@H](Cl)[C@@H](Cl)[C@@H](Cl)[C@H](Cl)[C@H]1Cl [Lindane (USP), Lindane] | + | - | + | 0.2 | 
CCOC(=O)CC(SP(=S)(OC)OC)C(=O)OCC (stereo not shown) [Malathion (ind.), Malathion] | - | - | + | 0.1 | Mutagenicity, direct-acting mutagen [3]: +
[Mn+2] [Manganese(II)] | + | - | + | 5 | 
CC1=CC(=O)c2ccccc2C1=O [Menadione] | +^e | + | + | 0.01 | Invention Response [1]: Positive; Carcinogenic Status [2]: Possible; New Color Development, Methyl Green leuco dye [6]: None; New Color Development, Methyl Violet leuco dye [6]: None^a,b; New Color Development, Naphthol Blue-Black leuco dye [6]: None^b; New Color Development, Nile Blue A leuco dye [6]: None^b; New Color Development, Safranin O leuco dye [6]: None; New Color Development, NBTZ [6]: Black
CN(C)c1ccc(C(=C2C=CC(=[N+](C)C)C=C2)c2ccc([N+](C)(C)C)cc2)cc1.[Cl-].[Cl-] [Methyl Green, methyl green] |  |  |  |  | E1/2 [8]: approximately -0.55 V
CN(C)c1ccc2nc3ccc(=[N+](C)C)cc-3sc2c1 [Methylene Blue (USP), Methylene Blue] | - | + | - |  | Em7 [8]: +0.01 V

Compound | Tumorigen Activity [2] | Mutagenicity [3] | Teratogen Activity [4] | Detector Response, threshold dose [5] | also measured
C=CC(=O)NCNC(=O)C=C [Methylene(bis)acrylamide, Methylene(bis)-acrylamide] | - | - | - | < 2 | 
Cc1cc(O)ccc1O [Methylhydroquinone] | - | - | - | 30 | 
O=N[O-].[Na+] [NaNO2] | + | + | + | 0.1 | 
c1ccc(-c2cnc(-c3ccc(-c4ncc(-c5ccccc5)o4)cc3)o2)cc1 [POPOP] |  |  |  |  | Invention Response [1]: Negative; Carcinogenic Status [2]: Negative
Nc1c(Cl)c(Cl)nc(C(=O)O)c1Cl [Picloram (ind.), Picloram] |  | - | + | 0.01 | Tumorigen Activity, assignment based on NCI/NTP carcinogenesis bioassay results [2]: +
O=C1C=CC(=O)C=C1.Oc1ccc(O)cc1 [Quinhydrone] | +^e | - | - | 0.1-0.2 | 
Cc1cc2nc3cc(C)c(N)cc3[n+](-c3ccccc3)c2cc1N.[Cl-] [Safranin O] |  |  |  |  | Em7 [8]: -0.28 V
C=Cc1ccccc1 [Styrene] |  |  |  |  | Invention Response [1]: Negative; Carcinogenic Status [2]: Negative
OC[C@H]1O[C@@](CO)(O[C@H]2O[C@H](CO)[C@@H](O)[C@H](O)[C@H]2O)[C@@H](O)[C@@H]1O [Sucrose] |  |  |  |  | Invention Response [1]: Negative; Carcinogenic Status [2]: Negative
Cc1cccc(O)c1 [m-Cresol] | - | - | - | 2 | 
CN(C)c1ccc(C(=C2C=CC(=[N+](C)C)C=C2)c2ccccc2)cc1 [malachite green] |  |  |  |  | E1/2 [8]: -0.55 V
O=S([O-])S(=O)[O-].[Na+].[Na+] [sodium dithionite] |  |  |  |  | Em7 [8]: < -0.5 V
Copper(II) | +/- | - | + | 5 | 
Cr(VI) | +^e | + | - | 0.1 | 
Nile Blue A |  |  |  |  | Em7 [8]: -0.12 V
dichromate |  |  |  |  | Direct reaction with the indicator leuco dye [7]: react directly with the indicator dye
methyl violet |  |  |  |  | E1/2 [8]: approximately -0.75 V
